In ChEMBL document CHEMBL4270601, “Design and synthesis of multipotent 3-aminomethylindoles and 7-azaindoles with enhanced protein phosphatase 2A-activating profile and neuroprotection” (Eur J Med Chem, 2018):
Calls of active or inactive are those of the source. No cut-off for these calls is given here.

Legend:
[1] = tested on: SH-SY5Y; assay: Neuroprotective activity against cocktail of rotenone plus oligomycin A-induced oxidative stress in human SH-SY5Y cells assessed as increase in cell viability at 10 nM preincubated for 24 hrs followed by […] measured after 24 hrs by MTT assay relative to control; assay type: functional
[2] = tested on: SH-SY5Y; assay: Cytotoxicity against human SH-SY5Y cells assessed as decrease in cell viability up to 30 uM after 48 hrs by MTT assay; assay type: cell-based
[3] = tested on: SH-SY5Y; assay: Neuroprotective activity against okadaic acid-induced oxidative stress in human SH-SY5Y cells assessed as increase in cell viability at 0.1 uM preincubated for 24 hrs followed by OA addition measured after 20 hrs by MTT assay relative to control; assay type: functional
[4] = tested on: Voltage-gated calcium channel; assay: Inhibition of voltage gated calcium channel in human SH-SY5Y cells assessed as blockade of K+-evoked calcium uptake at 1 uM pretreated for 10 mins followed by 70 mM K+ addition by Fluo-4AM dye based fluorescence assay relative to control; assay type: cell-based
[5] = tested on: SH-SY5Y; assay: Reversal of okadaic acid-mediated PP2A catalytic subunit C Ser/Thr phosphatase activity inactivation in human SH-SY5Y cells assessed as recovery of PP2A activity at 0.1 uM preincubated for 24 hrs followed by cotreatment with PPA2 inhibitor okadaic acid for 18 hrs measured over 30 mins by pNPP based spectrophotometric analysis relative to control; assay type: cell-based; parameters: scale not given: the % may be the effect or the level left
[6] = tested on: SH-SY5Y; assay: Reversal of okadaic acid-mediated PP2A inactivation in human SH-SY5Y cells assessed as decrease in Tau phosphorylation at Ser202/Thr205 residues at 0.1 uM after 24 hrs by Western blot method; assay type: cell-based
[7] = organism: Bos taurus; assay: Inhibition of P/Q-type voltage dependent calcium channel in bovine Chromaffin cells assessed as reduction in K+-induced calcium current at 1 uM after 3 mins by whole cell patch clamp electrophysiology assay; assay type: cell-based
[8] = molecular target: Voltage-dependent N-type calcium channel subunit alpha (Bos taurus) (UniProt G3X7Z2); assay: Inhibition of N-type voltage dependent calcium channel in bovine Chromaffin cells assessed as reduction in K+-induced calcium current at 1 uM after 3 mins by whole cell patch clamp electrophysiology assay; assay type: cell-based
Chain of Voltage-dependent N-type calcium channel subunit alpha (Bos taurus) (G3X7Z2 as listed by the source): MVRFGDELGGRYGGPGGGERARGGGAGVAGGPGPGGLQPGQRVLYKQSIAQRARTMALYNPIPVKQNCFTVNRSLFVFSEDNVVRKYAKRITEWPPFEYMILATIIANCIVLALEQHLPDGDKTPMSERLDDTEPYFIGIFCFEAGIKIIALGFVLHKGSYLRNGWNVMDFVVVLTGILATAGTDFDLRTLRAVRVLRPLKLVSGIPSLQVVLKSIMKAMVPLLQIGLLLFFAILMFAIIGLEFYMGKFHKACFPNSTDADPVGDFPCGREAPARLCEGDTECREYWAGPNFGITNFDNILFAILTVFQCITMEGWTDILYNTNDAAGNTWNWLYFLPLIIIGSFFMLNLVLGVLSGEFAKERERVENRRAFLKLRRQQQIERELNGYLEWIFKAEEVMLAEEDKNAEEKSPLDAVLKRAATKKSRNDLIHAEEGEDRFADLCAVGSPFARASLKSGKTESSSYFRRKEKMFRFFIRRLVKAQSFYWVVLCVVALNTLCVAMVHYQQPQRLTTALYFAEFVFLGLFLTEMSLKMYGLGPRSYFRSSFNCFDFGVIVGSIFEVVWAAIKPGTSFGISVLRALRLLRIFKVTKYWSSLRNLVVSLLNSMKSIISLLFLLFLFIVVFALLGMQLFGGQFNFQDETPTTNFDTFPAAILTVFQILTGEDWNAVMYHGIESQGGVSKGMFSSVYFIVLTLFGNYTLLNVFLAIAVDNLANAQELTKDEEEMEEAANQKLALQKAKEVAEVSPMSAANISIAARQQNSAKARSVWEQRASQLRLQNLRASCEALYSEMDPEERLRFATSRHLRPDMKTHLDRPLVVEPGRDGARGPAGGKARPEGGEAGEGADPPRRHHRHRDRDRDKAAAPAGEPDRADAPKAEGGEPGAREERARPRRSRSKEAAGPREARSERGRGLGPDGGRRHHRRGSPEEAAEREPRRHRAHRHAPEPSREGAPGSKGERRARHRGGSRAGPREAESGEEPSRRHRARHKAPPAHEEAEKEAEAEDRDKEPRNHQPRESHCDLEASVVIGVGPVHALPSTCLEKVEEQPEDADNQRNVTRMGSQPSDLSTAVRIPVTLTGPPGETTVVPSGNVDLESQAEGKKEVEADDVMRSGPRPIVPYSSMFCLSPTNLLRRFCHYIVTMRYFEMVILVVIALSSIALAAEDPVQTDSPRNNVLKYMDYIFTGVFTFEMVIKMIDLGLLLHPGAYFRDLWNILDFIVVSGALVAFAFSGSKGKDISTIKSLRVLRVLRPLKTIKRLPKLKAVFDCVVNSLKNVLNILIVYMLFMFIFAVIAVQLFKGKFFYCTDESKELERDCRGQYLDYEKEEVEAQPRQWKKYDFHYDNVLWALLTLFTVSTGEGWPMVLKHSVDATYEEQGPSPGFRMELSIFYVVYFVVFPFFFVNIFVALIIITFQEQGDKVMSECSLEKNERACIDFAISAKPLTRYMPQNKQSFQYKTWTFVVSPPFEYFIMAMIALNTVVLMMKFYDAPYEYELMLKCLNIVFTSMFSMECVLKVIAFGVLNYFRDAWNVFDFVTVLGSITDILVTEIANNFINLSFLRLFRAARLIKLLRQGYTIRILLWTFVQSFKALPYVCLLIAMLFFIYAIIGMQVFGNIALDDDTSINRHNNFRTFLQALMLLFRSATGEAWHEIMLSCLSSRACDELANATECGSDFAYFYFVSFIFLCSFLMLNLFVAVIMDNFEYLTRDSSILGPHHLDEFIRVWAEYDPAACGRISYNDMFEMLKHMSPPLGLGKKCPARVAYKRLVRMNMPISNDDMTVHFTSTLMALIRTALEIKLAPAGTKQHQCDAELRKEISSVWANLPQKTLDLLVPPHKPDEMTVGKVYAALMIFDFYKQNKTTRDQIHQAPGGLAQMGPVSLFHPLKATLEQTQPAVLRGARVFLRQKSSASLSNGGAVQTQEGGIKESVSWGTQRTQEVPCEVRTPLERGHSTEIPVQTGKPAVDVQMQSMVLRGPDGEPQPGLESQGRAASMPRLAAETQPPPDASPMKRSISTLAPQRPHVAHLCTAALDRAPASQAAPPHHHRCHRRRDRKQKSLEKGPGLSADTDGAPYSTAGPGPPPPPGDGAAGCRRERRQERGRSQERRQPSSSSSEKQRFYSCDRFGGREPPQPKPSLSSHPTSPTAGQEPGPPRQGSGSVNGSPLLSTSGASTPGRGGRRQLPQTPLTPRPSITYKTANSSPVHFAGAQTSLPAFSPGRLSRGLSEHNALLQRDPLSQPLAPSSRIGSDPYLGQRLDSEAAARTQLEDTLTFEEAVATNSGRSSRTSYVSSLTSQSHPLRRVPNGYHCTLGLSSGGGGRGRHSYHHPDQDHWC

[9] = tested on: Voltage-gated calcium channel; assay: Inhibition of voltage gated calcium channel in human SH-SY5Y cells assessed as blockade of K+-evoked calcium uptake at 3 uM pretreated for 10 mins followed by 70 mM K+ addition by Fluo-4AM dye based fluorescence assay relative to control; assay type: cell-based

SMILES | Activity [1] [%] | Activity [2] | Activity [3] [%] | inhibition (INH) [4] [%] | Activity [5] [%] | Activity [6] | inhibition [7] | inhibition [8] | inhibition (INH) [9] [%]
Clc1ccc2c(c1)c(CN1CCCCC1)cn2Cc1ccccc1 | 24 | Non-Toxic | 62 | 37 | 27 |  |  |  | 
C#CCn1cc(CN2CCCCC2)c2cc(Cl)ccc21 | 16 | Non-Toxic | 55 | 32 | 44 |  |  |  | 
CN(C)Cc1cn(Cc2ccccc2)c2ccc(Cl)cc12 | 32 | Non-Toxic | 88 | 40 | 78 | Active | Active | Active | 
c1ccc(Cn2cc(CN3CCCCC3)c3ccccc32)cc1 | 28 | Non-Toxic | 65 | 11 | 37 |  |  |  | 
CCCCn1cc(CN2CCCCC2)c2cc(Br)cnc21 | 39 | Non-Toxic | 98 | 9 | 22 |  |  |  | 
CN(C)Cc1cn(Cc2ccccc2)c2ncc(Br)cc12 | 32 | Non-Toxic | 84 | 46 | 21 |  | Active | Active | 
CCCCn1cc(CN2CCCCC2)c2ccccc21 | 25 | Non-Toxic | 55 | 13 | 30 |  |  |  | 
COc1cnc2c(c1)c(CN1CCCCC1)cn2Cc1ccccc1 | 40 | Non-Toxic | 62 | 19 | 47 |  |  |  | 
C#CCn1cc(CN(C)C)c2cc(Br)cnc21 | 17 | Non-Toxic | 63 | 11 | 17 |  |  |  | 
CCCCn1cc(CN(C)C)c2cc(Br)cnc21 | 18 | Non-Toxic | 57 | 10 | 34 |  |  |  | 
CN(C)Cc1cn(Cc2ccccc2)c2ccccc12 | 34 | Non-Toxic | 67 | 22 | 45 |  |  |  | 
COc1cnc2c(c1)c(CN(C)C)cn2Cc1ccccc1 | 29 | Non-Toxic | 51 | 10 | 33 |  |  |  | 
CC12CC3CC(C)(C1)CC(N)(C3)C2 [MEMANTINE] |  |  | 63 |  | 28 |  |  |  | 
CCCCn1cc(CN(C)C)c2ccccc21 | 20 | Non-Toxic | 50 | 7 | 12 |  |  |  | 
Brc1cnc2c(c1)c(CN1CCCCC1)cn2Cc1ccccc1 | 25 | Non-Toxic | 60 | 15 | 31 |  |  |  | 
CCCCn1cc(CN(C)C)c2cc(Cl)ccc21 | 38 | Non-Toxic | 93 | 23 | 39 |  |  |  | 
C#CCn1cc(CN(C)C)c2cc(Cl)ccc21 | 26 | Non-Toxic | 43 | 18 | 23 |  |  |  | 
C#CCn1cc(CN2CCCCC2)c2ccccc21 | 41 | Non-Toxic | 58 | 35 | 17 |  |  |  | 
COC(=O)C1=C(C)NC(C)=C(C(=O)OC)C1c1ccccc1[N+](=O)[O-] [NIFEDIPINE] |  |  |  |  |  |  |  |  | 40
C#CCn1cc(CN(C)C)c2ccccc21 | 32 | Non-Toxic | 75 | 3 | 59 |  |  |  | 
COc1ccc2[nH]cc(CCNC(C)=O)c2c1 [MELATONIN] | 36 |  |  |  |  |  |  |  | 
C#CCn1cc(CN2CCCCC2)c2cc(Br)cnc21 | 13 | Non-Toxic | 68 | 8 | 25 |  |  |  | 
CCCCn1cc(CN2CCCCC2)c2cc(Cl)ccc21 | 27 | Non-Toxic | 98 | 24 | 38 |  |  |  | 
